The record followed here is patent US8278465B2, “Coumarin derivative having antitumor activity” (Chugai Seiyaku Kabushiki Kaisha, priority 2006, dated 2012).

The structures appear in SMILES notation.

One experiment has as its system human colon cancer cell line HCT116. As to the kind of experiment: Measurement of cell proliferation inhibitory activity (Cell Counting Kit-8). The format is cell-based. The settings on record: HCT116, 4 days incubation, Table 1-2; read-out: IC50 (50% proliferation inhibitory concentration). As for the experimental part:
The cell proliferation inhibitory activities of the compounds and salts shown in Tables 1-1, 1-2 and Table 2 were measured as follows, using the human colon cancer cell line HCT116 (American Type Culture Collection, VA, USA). 2000 to 3000 cells per well of the human colon cancer cell line HCT116 was placed in a 96-well culture plate, a predetermined concentration (0.00038 μM, 0.00076 μM, 0.0015 μM, 0.0031 μM, 0.0061 μM, 0.012 μM, 0.024 μM, 0.049 μM, 0.098 μM, 0.195 μM, 0.39 μM, 0.78 μM, 1.56 μM, 3.13 μM, 6.25 μM, 12.5 μM, 25 μM or 50 μM) of the test substance was added thereto, and the mixture was then incubated at 37° C. under 5% CO2 environment for 4 days. On day 4 of incubation, the Cell Counting Kit-8 solution (Dojindo Laboratories) was added, the absorbance (measurement wavelength: 450 nm; reference wavelength: 615 nm) was measured following the protocol attached to the kit, and the 50% proliferation inhibitory concentration (IC50) was calculated.
For the compound `Cc1c(Cc2ccccc2)c(=O)oc2cc(OC(=O)N(C)C)c(Cl)cc12` [Comp. 2, dimethylcarbamic acid 2-oxo-2H-3-benzyl-4-methyl-6-chloro-1-benzopyran-7-yl ester, reference compound], the IC50 was 1300 nM.

The same experiment, now with this note: Homo sapiens, HCT-116, 96 h; HCT116, 4 days incubation, Table 1-1; read-out: IC50 (50% proliferation inhibitory concentration).
Turning to `CNS(=O)(=O)Nc1cccc(Cc2c(CF)c3cc(Cl)c(OC(=O)N(C)C)cc3oc2=O)c1` [Compound 1j-1-3-2F, Dimethylcarbamic acid 6-chloro-4-fluoromethyl-3-{3-(methylaminosulfonyl)aminobenzyl}-2-oxo-2H-1-benzopyran-7-yl ester], the IC50 came to 19.5 nM.

Take `Cc1c(Cc2cccc(NS(N)(=O)=O)c2F)c(=O)oc2cc(OC(=O)N(C)C)ccc12` [Compound 1j-1-4-1, Dimethylcarbamic acid 3-(3-aminosulfonylamino-2-fluoro-benzyl)-4-methyl-2-oxo-2H-1-benzopyran-7-yl ester]: the IC50 worked out at 17.6 nM.

In the case of `CNS(=O)(=O)Nc1cccc(Cc2c(C)c3ccc(OC(=O)N(C)C)cc3oc2=O)c1F` [Compound 1j-1-4-2, Dimethylcarbamic acid 3-(3-methylaminosulfonylamino-2-fluorobenzyl)-4-methyl-2-oxo-2H-1-benzopyran-7-yl ester], the IC50 is 9.3 nM.

`CNS(=O)(=O)Nc1cccc(Cc2c(CF)c3ccc(OC(=O)N(C)C)cc3oc2=O)c1F` [Compound 1j-1-4-2F, Dimethylcarbamic acid 3-(3-methylaminosulfonylamino-2-fluorobenzyl)-4-fluoromethyl-2-oxo-2H-1-benzopyran-7-yl ester]: the IC50 was determined as 10.6 nM.

Turning to `Cc1c(Cc2cccc(NS(N)(=O)=O)c2F)c(=O)oc2cc(OC(=O)N(C)C)c(F)cc12` [Compound 1j-1-5-1, Dimethylcarbamic acid 3-{2-fluoro-3-(aminosulfonyl)aminobenzyl}-6-fluoro-4-methyl-2-oxo-2H-1-benzopyran-7-yl ester], the IC50 turned out to be 8.3 nM.

On to `CNS(=O)(=O)Nc1cccc(Cc2c(C)c3cc(F)c(OC(=O)N(C)C)cc3oc2=O)c1F` [Compound 1j-1-5-2, Dimethylcarbamic acid 6-fluoro-4-methyl-3-{2-fluoro-3-(methylaminosulfonyl)aminobenzyl}-2-oxo-2H-1-benzopyran-7-yl ester], for which the IC50 was determined as 2.9 nM.

On to `Cc1c(Cc2cccc(NS(N)(=O)=O)c2)c(=O)oc2cc(OC(=O)N(C)C)c(I)cc12` [Compound 1j-1-7-1, Dimethylcarbamic acid 3-{3-(aminosulfonyl)aminobenzyl}-6-iodo-4-methyl-2-oxo-2H-1-benzopyran-7-yl ester], for which the IC50 turned out to be 11.4 nM.

For the compound `CNS(=O)(=O)Nc1cccc(Cc2c(C)c3cc(I)c(OC(=O)N(C)C)cc3oc2=O)c1` [Compound 1j-1-7-2, Dimethylcarbamic acid 6-iodo-4-methyl-3-{3-(methylaminosulfonyl)aminobenzyl}-2-oxo-2H-1-benzopyran-7-yl ester], the IC50 stood at 7.9 nM.

`CNS(=O)(=O)Nc1cccc(Cc2c(C)c3cc(C)c(OC(=O)N(C)C)cc3oc2=O)c1` [Compound 1j-1-8-2, Dimethylcarbamic acid 6-methyl-4-methyl-3-{3-(methylaminosulfonyl)aminobenzyl}-2-oxo-2H-1-benzopyran-7-yl ester]: the IC50 is 21.7 nM.

In the case of `CNS(=O)(=O)Nc1cccc(Cc2c(C)c3cc(C#N)c(OC(=O)N(C)C)cc3oc2=O)c1` [Compound 1j-1-9-2], the IC50 came to 24.2 nM.

Staying with this experiment, now noted: Homo sapiens, HCT-116, 96 h; HCT116, 4 days incubation, Table 1-2; read-out: IC50 (50% proliferation inhibitory concentration).
Turning to `CNS(=O)(=O)Nc1cc(Cc2c(C)c3ccc(OC(=O)N(C)C)cc3oc2=O)ccn1` [Compound 1j-1-10-2, Dimethylcarbamic acid 4-methyl-3-{2-(methylaminosulfonyl)aminopyridin-4-ylmethyl}-2-oxo-2H-1-benzopyran-7-yl ester], the IC50 came to 31.9 nM.

Take `CNS(=O)(=O)Nc1cc(Cc2c(C)c3cc(F)c(OC(=O)N(C)C)cc3oc2=O)ccn1` [Compound 1j-1-11-2, Dimethylcarbamic acid 4-methyl-3-{2-(methylaminosulfonyl)aminopyridin-4-ylmethyl}-6-fluoro-2-oxo-2H-1-benzopyran-7-yl ester]: the IC50 is 18.3 nM.

Turning to `CNS(=O)(=O)Nc1cc(Cc2c(C)c3cc(Cl)c(OC(=O)N(C)C)cc3oc2=O)ccn1` [Compound 1j-1-12-2, Dimethylcarbamic acid 4-methyl-3-{2-(methylaminosulfonyl)aminopyridin-4-ylmethyl}-6-chloro-2-oxo-2H-1-benzopyran-7-yl ester], the IC50 was 6.4 nM.

For `CNS(=O)(=O)Nc1nccc(Cc2c(C)c3cc(F)c(Oc4ncccn4)cc3oc2=O)c1F` [Compound 1j-2-17-2, 3-{2-(methylaminosulfonyl)amino-3-fluoropyridin-4-ylmethyl}-4-methyl-6-fluoro-7-(pyrimidin-2-yloxy)-2-oxo-2H-1-benzopyran], the IC50 was found to be 21.1 nM.

`CNS(=O)(=O)Nc1nccc(Cc2c(C)c3cc(Cl)c(Oc4ncccn4)cc3oc2=O)c1F` [Compound 1j-2-18-2, 3-{2-(Methylaminosulfonyl)amino-3-fluoropyridin-4-ylmethyl}-4-methyl-6-chloro-7-(pyrimidin-2-yloxy)-2-oxo-2H-1-benzopyran]: the IC50 was found to be 5.9 nM.

`CNS(=O)(=O)Nc1nccc(Cc2c(C)c3cc(C)c(Oc4ncccn4)cc3oc2=O)c1F` [Compound 1j-2-19-2, 3-{2-(Methylaminosulfonyl)amino-3-fluoropyridin-4-ylmethyl}-4-methyl-6-methyl-7-(pyrimidin-2-yloxy)-2-oxo-2H-1-benzopyran]: the IC50 turned out to be 17.8 nM.

On to `CCc1c(Cc2ccnc(NS(=O)(=O)NC)c2F)c(=O)oc2cc(Oc3ncccn3)c(C)cc12` [Compound 1j-2-19-2Me, 3-{2-(Methylaminosulfonyl)amino-3-fluoropyridin-4-ylmethyl}-4-ethyl-6-methyl-7-(pyrimidin-2-yloxy)-2-oxo-2H-1-benzopyran], for which the IC50 stood at 8.4 nM.

`Cc1c(Cc2cccc(NS(N)(=O)=O)c2F)c(=O)oc2cc(Oc3nccs3)ccc12` [Compound 1j-3-4-1, 3-{2-Fluoro-3-(aminosulfonyl)aminobenzyl}-4-methyl-7-(thiazol-2-yloxy)-2-oxo-2H-1-benzopyran]: the IC50 was found to be 22.5 nM.

Turning to `CNS(=O)(=O)Nc1cccc(Cc2c(C)c3ccc(Oc4nccs4)cc3oc2=O)c1F` [Compound 1j-3-4-2, 3-{2-Fluoro-3-(methylaminosulfonyl)aminobenzyl}-4-methyl-7-(thiazol-2-yloxy)-2-oxo-2H-1-benzopyran], the IC50 turned out to be 10.9 nM.

On to `CNS(=O)(=O)Nc1cc(Cc2c(C)c3cc(Cl)c(Oc4nccs4)cc3oc2=O)ccn1` [Compound 1j-3-12-2, 3-{2-(Methylaminosulfonyl)aminopyridin-4-ylmethyl}-4-methyl-6-chloro-7-(thiazol-2-yloxy)-2-oxo-2H-1-benzopyran], for which the IC50 was 12.2 nM.

For `CNS(=O)(=O)Nc1nccc(Cc2c(C)c3cc(C)c(Oc4nccs4)cc3oc2=O)c1F` [Compound 1j-3-19-2, 3-{2-(Methylaminosulfonyl)amino-3-fluoropyridin-4-ylmethyl}-4-methyl-6-methyl-7-(thiazol-2-yloxy)-2-oxo-2H-1-benzopyran], the IC50 was 1.5 nM.

In the case of `CNS(=O)(=O)Nc1cc(Cc2c(C)c3cc(C)c(Oc4nccs4)cc3oc2=O)ccn1` [Compound 1j-3-20-2, 3-{2-(Methylaminosulfonyl)aminopyridin-4-ylmethyl}-4-methyl-6-methyl-7-(thiazol-2-yloxy)-2-oxo-2H-1-benzopyran], the IC50 was determined as 8.9 nM.
